Measurements published in patent US9623109B2, “Methods of killing cells and use of same in prevention and treatment of cancer” (Yissum Research Development Company of the Hebrew …, priority 2008, dated 2017).

Legend:
CKI-delta = CKI-delta (Homo sapiens, UniProt P48730); conditions: cited from earlier work
CKI-epsilon = CKI-epsilon (Homo sapiens, UniProt P49674); conditions: cited from earlier work
CKIα KO mice = assay: Sulindac feeding of CKIα knockout mice (gut phenotype, qRT-PCR, Western, IHC, SA-β-gal); assay type: in vivo, mouse
Experimental: Tamoxifen (Sigma) was dissolved in Corn Oil (Sigma) to a 20 mg/ml concentration. Mice at 2-3 months were injected subcutaneously with 2 mg Tamoxifen per injection, 5-7 injections every other day, over a 10-14 day period. Mice were sacrificed 4-5 days after the last injection. The colon and part of the small intestine were taken for histology, together with the stomach, liver, pancreas, spleen, kidney, heart and lung. Enterocytes (intestinal epithelial cells) were isolated from most of the small intestine. Enterocytes were used for RNA and protein assays.
All tissues were fixated in 4% formaldehyde for 24 hours, paraffin embedded and sectioned at 5 μm for hematoxylin/eosin (H&E) staining and immunohistochemistry. BrdU (Amersham) was injected intraperitonally at 100 μl/10 g body weight, 2 hours prior to sacrifice. The primary antibodies used were goat anti-CKIα (1:100; Santa Cruz), rabbit anti-Cleaved Caspase-3 (1:100; Cell Signaling), rabbit CM5 (anti-mouse p53) (1:400; Novocastra), mouse anti-β-catenin (1:200; BD transduction), mouse anti-BrdU (1:100; NeoMarkers), rabbit anti-Cyclin D1 (1:125; Lab Vision), mouse anti-p21 (1:50; Santa Cruz), mouse anti-γH2AX (Ser139) (1:100; Upstate), mouse anti-IL-8 (1:125; Bender), rabbit anti-Ki67 (1:300; NeoMarkers). The secondary antibodies used for immunohistochemistry were HRP-polymer anti-Rabbit and anti-Goat (Nichirei), HRP-polymer Mouse on Mouse kit (Nichirei), Mach2 anti mouse-HRP polymer (Biocare) and Mouse-Envision Plus (Dako). HRP was visualized with DAB chromogen (Thermo Scientific) and nuclear counterstain was hemotoxylin (BioOptica). The secondary antibody used for immunofluorescence was goat anti mouse Alexa-488 (1:1000; Molecular Probes). The nuclear counterstain used for immunofluorescence was Hoechst (1.5 μg/ml, Molecular Probes).
For enterocyte isolation, ˜⅔ of the small intestine was washed and minced into small pieces in PBS/1 mM DTT. Intestine was separated into single cells in Ca^2+, Mg^2+ free HBSS containing 10 mM HEPES, 5 mM EDTA and 0.5 mM DTT, at 37° C. for 30 minutes with slow agitation. Lysate was mixed vigorously and cell suspension was centrifuged. Cell pellets were frozen in liquid N2 and stored at −80° C. Protein was extracted from cell pellets in cell lysis buffer containing protease and phosphatase inhibitors. Primary antibodies used in Western blotting were goat-anti CKIα (1:100; Santa Cruz), mouse anti-CKIε (1:250; Santa Cruz), mouse anti-β-catenin (1:2500; BD transduction), rabbit anti-Phospho-β-catenin (Thr41/Ser45) (1:750, Cell Signaling), rabbit CM5 (anti-mouse p53) (1:400; Novocastra), mouse anti-human p53 (1:20; DO-1 hybridoma), rabbit anti-Phospho-p53 (Ser15) (1:1000; Cell Signaling), rabbit anti-Cyclin D1 (1:300; Lab Vision), rabbit anti-Cyclin D2 (1:1000; Santa Cruz), rabbit-anti Bax (1:200; Santa Cruz), mouse anti-MdmX (1:1000; Sigma), goat anti-MdmX (1:200; Santa Cruz), mouse anti-GSK3β (1:2500; BD transduction) rabbit anti-Cleaved Caspase-3 (1:1000; Cell Signaling), rabbit anti-PARP (1:1000; Cell Signaling), mouse anti-p21 (1:200; Santa Cruz), mouse anti-E2F1 (1:500, Santa Cruz), mouse anti-γH2AX (Ser139) (1:1000; Upstate), rabbit anti-Phospho-Chk2 (Thr68) (1:1000; Cell Signaling), rabbit anti-Hsp90 (1:5000; Calbiochem). Secondary antibodies used in Western blotting were HRP-conjugated, goat anti-rabbit, goat anti-mouse and rabbit anti-goat (1:10,000; Jackson). ECL (Amersham) was used for HRP detection. […]

[1] = test system: RKO colorectal carcinoma cells; assay: CKIδ/ε or CKIδ shRNA knockdown in RKO colorectal carcinoma cells (DNA damage response); assay type: cell-based; conditions: CKIδ depletion, human colorectal carcinoma cell line, FIG. 21
Experimental: FIG. 21 is a photograph illustrating the DNA damage response (DDR) upon CKIδ/ε ablation.
For enterocyte isolation, ˜⅔ of the small intestine was washed and minced into small pieces in PBS/1 mM DTT. Intestine was separated into single cells in Ca^2+, Mg^2+ free HBSS containing 10 mM HEPES, 5 mM EDTA and 0.5 mM DTT, at 37° C. for 30 minutes with slow agitation. Lysate was mixed vigorously and cell suspension was centrifuged. Cell pellets were frozen in liquid N2 and stored at −80° C. Protein was extracted from cell pellets in cell lysis buffer containing protease and phosphatase inhibitors. […]
RKO and HCT116 cells were cultured in Dulbecco's modified Eagle's medium, supplemented with 10% fetal calf serum (Sigma). […] CKIα expression levels were determined before each experiment to ensure adequate knockdown. […]

CKI-epsilon, sequence (P49674 whole entry): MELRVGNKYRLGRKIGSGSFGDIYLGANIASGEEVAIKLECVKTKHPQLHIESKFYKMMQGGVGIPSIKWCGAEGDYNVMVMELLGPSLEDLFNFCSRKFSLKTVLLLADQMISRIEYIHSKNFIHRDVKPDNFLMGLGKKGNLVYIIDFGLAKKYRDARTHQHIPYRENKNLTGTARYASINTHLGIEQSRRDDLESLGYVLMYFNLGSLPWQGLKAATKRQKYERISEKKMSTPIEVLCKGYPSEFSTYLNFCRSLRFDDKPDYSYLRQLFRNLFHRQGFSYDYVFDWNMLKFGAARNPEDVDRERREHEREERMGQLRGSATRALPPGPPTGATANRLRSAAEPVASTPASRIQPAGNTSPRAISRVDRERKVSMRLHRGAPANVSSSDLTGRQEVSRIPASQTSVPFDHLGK
CKI-delta, sequence (P48730 whole entry): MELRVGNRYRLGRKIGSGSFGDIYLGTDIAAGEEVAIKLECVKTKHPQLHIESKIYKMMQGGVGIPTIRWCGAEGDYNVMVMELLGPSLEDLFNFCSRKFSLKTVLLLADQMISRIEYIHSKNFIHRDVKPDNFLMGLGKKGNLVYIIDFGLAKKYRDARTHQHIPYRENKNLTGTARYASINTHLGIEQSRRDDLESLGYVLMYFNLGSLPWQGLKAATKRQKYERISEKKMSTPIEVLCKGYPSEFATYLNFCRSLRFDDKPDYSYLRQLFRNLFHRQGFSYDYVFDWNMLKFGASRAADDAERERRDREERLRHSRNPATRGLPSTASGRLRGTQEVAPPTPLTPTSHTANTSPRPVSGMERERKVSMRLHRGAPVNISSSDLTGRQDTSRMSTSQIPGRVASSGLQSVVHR

In the case of `COc1cc(OC)c(C=C2C(O)=Nc3ccccc32)c(OC)c1` [IC261], the “inhibition of CKI-delta” value (CKI-delta) is given as “specific inhibitor” and the “inhibition of CKI-epsilon” value (CKI-epsilon) is given as “specific inhibitor”.
In the case of `CC1=C(CC(=O)O)c2cc(F)ccc2/C1=C\c1ccc([S+](C)[O-])cc1` (centres unmarked) [Sulindac], the “cell-non autonomous effects of CKIα deficiency” value (CKIα KO mice; CKIα KO mice, Sulindac in the drinking water, FIG. 14) is reported as “prevents”, the “overall phenotype of the gut tissue: severity of dysplasia” value (CKIα KO mice; CKIα knockout mice fed Sulindac) is reported as “greatly reduced” and the “markers for Wnt activation, inflammation, senescence and cell growth arrest, including CyclinD1, Troy, Cox2, SA-β-gal and p21” value (CKIα KO mice; CKIα knockout mice fed Sulindac for the duration of the experiment) is reported as “significant reduction”. The “p53-independent senescence phenotype (SA β-gal) induced by CKIα deletion” value (CKIα KO mice; intestines of CKIα KO mice treated with Sulindac, FIG. 13) was “reversed” and the “clusters of cells with high grade dysplasia in the villi” value (CKIα KO mice; sulindac fed CKIα KO mice, never found in control mutant mice) was “many clusters of cells were found with high grade dysplasia”.
In the case of “CKIδ shRNA: shRNA sequence for CKIδ alone (SEQ ID NO: 5), from Open Biosystems, cloned in pLKO vector (CCGGCCCATCGAAGTGTTGTGTAAACTCGAGTTTACACAACACTTCGATGGGTTTTT)”, the p53 protein [1] is reported as “induced p53 stabilization”.
